In patent publication US20010046498A1, “Chimeric prostate-homing peptides with pro-apoptotic activity” (priority 2000, published 2001):
Where two headings read alike, the source gives them in different places. Bridge positions count the residues as written; N and C are the ends. Square brackets hold non-standard residues; d marks the D form. Peptide text beside a SMILES is read from it.

Legend:
[1] = test system: tumors derived from the human melanoma cell line C8161; assay: Treatment of nude mice bearing C8161 melanoma xenografts; assay type: in vivo; conditions: similar experiments
Protocol: (§1) The activity of HPP-1 was tested in vivo using nude mice bearing human MDA-MD-435 breast carcinoma xenografts as follows. Briefly, MDA-MB-435 and C8161-derived tumor xenografts were established in 2 month-old female nude mice (Jackson Labs; Bar Harbor, Me.) as described in Arap et al., supra, 1998. After mice were anesthetized with a mixture of 2,2,2-tribromoethanol (Aldrich; Milwaukee, Wis.) and 2-methyl-butanol (Aldrich) prepared in distilled water, peptides were administered intravenously through the tail vein at a dose of 250 μg/week/mouse given slowly in a volume of 200 μl. Three-dimensional measurements of tumors were taken by caliper under anesthesia and used to calculate tumor volume (Pasqualini et al., supra, 1996).

[2] = test system: MDA-MB-435 human breast carcinoma cells; assay: LC50 for MDA-MB-435 cells scored by apoptotic morphology; assay type: cell-based
Protocol: (§2) Briefly, dermal microvessel endothelial cells (DMECs) were grown in CADMEC Growth Media™ (Cell Applications, Inc.; San Diego, Calif.). Dermal microvessel endothelial cells were then cultured under three experimental conditions: proliferation, 30% confluency in a growth media supplemented with 500 ng/ml human recombinant vascular endothelial growth factor (VEGF; Pharmingen); no proliferation, 100% confluency in media formulated to maintain a monolayer; and cord formation, 60% confluency (required for induction) in media formulated to induce cord formation. The KS1767 and MDA-MB-435 cells were cultured as described in Arap et al., supra, 1998; Hernier et al., supra, 1994).
(§3) Percent viability and LC50 (Table 1) were determined by apoptotic morphology as described in Ellerby et al., J. Neurosci. 17:6165-6178 (1997). For the percent viability assays, dermal microvessel endothelial cells were treated with 60 μM HPP-1 or control peptide D(KLAKLAK)2. At the indicated time points, cell culture medium was aspirated from adherent cells, and the cells were gently washed once with PBS at 37° C. […] At least 500 cells were scored for a given time point in each experiment. Percent viability was calculated relative to untreated controls. The LC50 for monolayer, proliferation (60% confluency), and cord formation were scored at 72 hours.

[3] = test system: normal human dermal microvessel endothelial cells (DMECs); assay type: cell-based; design: dose or concentration left out as unconfirmed; conditions: proliferation or cord formation
[4] = test system: human MDA-MD-435 breast carcinoma xenografts; assay: Treatment of nude mice bearing breast carcinoma xenografts; assay type: in vivo
Protocol: as §1

[5] = test system: normal human dermal microvessel endothelial cells (DMECs); assay: in vitro; assay type: cell-based; conditions: for CC50: scored at 72 hours
Protocol: (§4) The effect of HPP-1 was assayed on normal human dermal microvessel endothelial cells (DMECs) under the angiogenic conditions of proliferation and cord formation. In addition, the effect of HPP-1 was assayed under the angiostatic condition of a monolayer maintained at 100% confluency (as described below).
as §2
as §3, with “C. Subsequently, a 20-fold dilution of the dye mixture (100 μg/ml acridine orange and 100 μg/ml ethidium bromide) in PBS was gently pipetted on the cells, which were viewed on an inverted microscope (Nikon TE 300).” for “C.”

in vitro = assay type: cell-based; conditions: human; monolayer at 100% confluency; scored at 72 hours; means of three independent experiments; read-out: LC50 DMEC Angiostatic
Protocol: as §4, §2
as §3, with “C. Subsequently, a 20-fold dilution of the dye mixture (100 μg/ml acridine orange and 100 μg/ml ethidium bromide) in PBS was gently pipetted on the cells, which were viewed on an inverted microscope (Nikon TE 300).” for “C.”

[6] = test system: dermal microvessel endothelial cells; assay: Mitochondrial morphology of proliferating DMECs (MitoTracker Red / DAPI); assay type: cell-based, human; conditions: 60 μM peptide
Protocol: Mitochondrial morphology of dermal microvessel endothelial cells was assessed in proliferating cells after treatment with 60 μM HPP-1, […]-GG-D(KLAKLAK)2 or untargeted D(KLAKLAK)2 as follows. Dermal microvessel endothelial cells were stained after 24 and 72 hours treatment with peptide by incubation for 30 min at 37° C. with 100 nM mitochondrial stain MitoTracker Red™ (Molecular Probes, Inc., Eugene Oreg.) and 500 nM of the nuclear stain DAPI (Molecular Probes, Inc.). Mitochondria were subsequently visualized using fluorescence microscopy (100×) under an inverted microscope using a triple wavelength filter set (Nikon).

[7] = test system: caspase activation in dermal microvessel endothelial cells; assay: Caspase activity (DEVD-pNA hydrolysis) in DMEC lysates; assay type: cell-based, human; conditions: proliferating DMECs
Protocol: Characteristic caspase-3 processing was measured in dermal microvessel endothelial cell lysates as described in Ellerby et al., supra, 1997. Briefly, aliquots of cell lysates (1 μl lysate, 8-15 mg/ml) were added to 100 μM N-acetyl-Asp-Glu-Val-Asp-pNA (DEVD-pNA; BioMol; 100 μl, 100 mM HEPES, 10% sucrose, 0.1% CHAPS, 1 mM DTT, pH 7.0). Hydrolysis of DEVD-PNA was monitored spectrophotometrically (400 nm) at 25° C.

KS1767 cells = assay: LC50 for KS1767 cells scored by apoptotic morphology; assay type: cell-based; conditions: proliferating KS1767 cells; read-out: LC50 KS1767 Prolif.
Protocol: as §2, §3

tumor = assay: Competition of GSL phage homing by free peptide; design: species or system mice; conditions: mouse, in vivo
Source text: A third motif, GSL (glycine-serine-leucine), also was identified following in vivo panning in mice bearing breast carcinoma, malignant melanoma or Kaposi's sarcoma. Homing of phage expressing the GSL peptide, CGSLVRC (SEQ ID NO: 5), was inhibited by coadministration of the free CGSLVRC (SEQ ID NO: 5) peptide. Like the RGD and NGR peptides, phage expressing GSL peptides also bound to blood vessels of tumors. In view of the identification of the conserved RGD, NGR and GSL motifs present in tumor homing peptides, as disclosed herein, it will be recognized that peptides containing such motifs can be useful as tumor homing peptides and, in particular, for forming homing pro-apoptotic conjugates that can selectively deliver an […] peptide to a tumor.

[8] = 250 μg/week/mouse intravenously

Row | Molecule | effect against C8161 melanoma tumors [1] | toxicity to MDA-MB-435 cells relative to KS1767 cells and angiogenic DMECs [2] | CC50 ([2]; proliferating MDA-MB-435 cells, read-out: LC50 MDA-MB-435 Prolif.) | percent viability with time relative to untreated controls [3] | histopathological analysis of tumors [4, 8] | survival versus control groups [4, 8] | tumor volume versus controls [4, 8] | apoptotic cell death in tumors ([4]; histopathological analysis) | LC50 for proliferating or migrating DMECs relative to LC50 for angiostatic DMECs ([5]; angiogenic versus angiostatic conditions) | CC50 ([5]; cord formation, read-out: LC50 DMEC Angiogenic Cord Form) | CC50 ([5]; proliferation with VEGF, read-out: LC50 DMEC Angiogenic Prolif.) | CC50 at 72 h (in vitro) | morphological indicators of apoptosis (nuclear condensation and fragmentation) ([6]; 72 hours) | cells with altered mitochondrial morphology ([6]; proliferating cells, before the cells rounded-up) | apoptotic cell death by caspase activity [7] | CC50 (KS1767 cells) | effect of coadministered free peptide on homing of CGSLVRC phage (tumor)
1 | CC(C)C[C@@H](NC(=O)[C@@H](CCCCN)NC(=O)CNC(=O)CNC(=O)[C@@H]1CSSC[C@H](N)C(=O)N[C@@H](CC(N)=O)C(=O)NCC(=O)N[C@@H](CCCNC(=N)N)C(=O)N1)C(=O)N[C@H](C)C(=O)N[C@H](CCCCN)C(=O)N[C@H](CC(C)C)C(=O)N[C@H](C)C(=O)N[C@H](CCCCN)C(=O)N[C@H](CCCCN)C(=O)N[C@H](CC(C)C)C(=O)N[C@H](C)C(=O)N[C@H](CCCCN)C(=O)N[C@H](CC(C)C)C(=O)N[C@H](C)C(=O)N[C@H](CCCCN)C(=O)O [HPP-1, CNGRC-GG-D(KLAKLAK)2] (H-CNGRCGG[dK][dL][dA][dK][dL][dA][dK][dK][dL][dA][dK][dL][dA][dK]-OH; disulfide 1-5) | effective | less toxic to MDA-MB-435 human breast carcinoma cells by approximately one order of magnitude | 415 µM | decrease in percent viability with time | pronounced destruction of tumor architecture and widespread cell death | survival was longer | smaller, on average by one order of magnitude | about 50% | an order of magnitude lower | 34 µM | 51 µM | 481 µM | exhibited the classic morphological indicators of apoptosis | approximately 80% | Apoptotic cell death was confirmed | 42 µM | 
2 | CGSLVRC [GSL tumor homing peptide] |  |  |  |  |  |  |  |  |  |  |  |  |  |  |  |  | inhibited
